Tests used:
iNOS protein = experiment: iNOS ELISA in activated microglia; type: cell-based, mouse; conditions: 10 μM, 24 h treatment, vs vehicle
Description: Mouse microglia were activated with IFNγ/LPS and treated with vehicle or 10 μM GL-IV-03. mRNA was isolated after 15 min, 1 h, 3 h and 6 h and iNOS was quantified using RT-qPCR. Cycle numbers for each sample were normalized to GAPDH using the ΔCt method (n=3). Mouse microglia were activated with IFNγ/LPS and treated with vehicle or 10 μM GL-IV-03 for 24 h. Cellular protein was extracted and analyzed with the mouse iNOS ELISA kit from Abcam (n=3). *, (p<0.05), ** (p<0.01) or *** (p<0.001) significance was calculate with ANOVA.
iNOS ELISA. Mouse microglia (2 mL of 500,000 cells/mL cell solution) were activated with 50 ng/mL LPS (Invivogen, NC9836) and 150 U/mL IFNγ (R&D Systems, 485M1100), and treated with compounds of interest in 6 well plates (VWR, 10062-892) for 24 hours. […] Cells were lysed with RIPA buffer and protein concentration quantified with the Pierce Rapid Gold BCA Protein Assay Kit (Thermo Scientific, A53227). Samples at 50 μg/mL were analyzed with the Mouse iNOS ELISA kit (ABCAM, ab253219). Absorbance (λ: 450 nm) was measured using a TECAN Infinite M1000 plate reader. Each measurement was carried with an n=3 and significance analyzed by ANOVA.

NET = NET (Homo sapiens, UniProt P23975); experiment: PDSP primary binding NET; conditions: PDSP primary screening
Description: (§1) Because reduction of NO could not be reversed by GABAAR antagonists, the possible binding of MP-IV-010 to other cellular receptors was evaluated in collaboration with the NIMH Psychoactive Drug Screening Program.
(§2) Psychoactive Drug Screening Program. Detailed protocols for the primary and secondary radioligand binding assays can be found in the National Institute of Mental Health's Psychoactive Drug Screening Program (NIMH PDSP) Assay Protocol Book. Briefly, primary and secondary radioligand binding assays are carried out in a final of volume of 125 μL per well in appropriate binding buffer. The radioactive ligand concentration is close to the Kd. Total binding and nonspecific binding are determined in the absence and presence of 10 μM of appropriate reference compound, respectively. In brief, plates are usually incubated at room temperature and in the dark for 90 min. Reactions are stopped by vacuum filtration onto 0.3% polyethyleneimine (PEI) soaked 96-well filter mats using a 96-well Filtermate harvester, followed by three washes with cold PBS buffer. Scintillation cocktail is then melted onto the microwave-dried filters on a hot plate and radioactivity counted in a Microbeta counter. The data (n=6) were analyzed by nonlinear regression.

5-HT1D = 5-HT1D (Homo sapiens, UniProt P28221); experiment: PDSP primary binding 5-HT1D; conditions: PDSP primary screening
Description: as §1, §2

H1 = H1 (Homo sapiens, UniProt P35367); experiment: PDSP primary binding H1; conditions: PDSP primary screening
Description: as §1, §2

5-HT1B = 5-HT1B (Homo sapiens, UniProt P28222); experiment: PDSP primary binding 5-HT1B; conditions: PDSP primary screening
Description: as §1, §2

D3 = D3 (Homo sapiens, UniProt P35462); experiment: PDSP primary binding D3; conditions: PDSP primary screening
Description: as §1, §2

Beta1 = Beta1 (Homo sapiens, UniProt P08588); experiment: PDSP primary binding Beta1; conditions: PDSP primary screening
Description: as §1, §2

iNOS [1] = target: T1, iNOS (Mus musculus, UniProt P29477); experiment: iNOS activity of extracts of activated microglia incubated with compound; type: biochemical; conditions: 50 μM, extracts incubated 2 h
T1 construct: endogenous in cells
Description: Cellular proteins were isolated from mouse microglia and mouse microglia activated for 24 hours with IFNγ/LPS. Cellular proteins from activated microglia were treated for 2 hours with 50 μM MP-IV-010 and iNOS activity was determined for all protein extracts with an Abcam INOS Activity Assay kit (n=3).
(§3) Next, the possible involvement of INOS in MP-IV-010 (and structurally similar compound GL-IV-03) mediated reduction of NO in activated microglia was investigated. INOS activity was measured in activated microglia after a 24-hour treatment with MP-IV-010. Second, proteins were harvested from microglia activated for 24 hours with LPS/INFγ, followed by a 2-hour treatment with MP-IV-010 before measuring iNOS activity. Finally, mRNA and protein levels were quantified for GL-IV-03 treated activated microglia to examine the transcriptional regulation of iNOS.
(§4) iNOS activity assay. Mouse microglia were activated with 50 ng/mL LPS (Invivogen, NC9836) and 150 U/mL IFNγ (R&D Systems, 485MI100), and treated with compounds of interest in 6 well plates for 2 or 24 hours. […] Protein was collected, quantified, and analyzed with the Nitric Oxide Synthase Activity kit (Abcam, ab211083) with minor alterations to the established protocol. […] Absorbance at 540 nm was measured using a TECAN Infinite M1000 plate reader. Significance (n=3) was analyzed by ANOVA.

M5 = M5 (Homo sapiens, UniProt P08912); experiment: PDSP primary binding M5; conditions: PDSP primary screening
Description: as §1, §2

σ2 receptor = target: T2, σ2 receptor (Homo sapiens, UniProt Q5BJF2); experiment: σ2 receptor binding (3H-ditolylguanidine, HEK cell lysate)
T2 construct: expressed in transfected cells; host or cells: HEK cells (stably transfected)
Description: as §2

5-HT1E = 5-HT1E (Homo sapiens, UniProt P28566); experiment: PDSP primary binding 5-HT1E; conditions: PDSP primary screening
Description: as §1, §2

iNOS [2] = experiment: iNOS activity in activated microglia after compound treatment; type: cell-based, mouse; conditions: 50 μM, treatment for 24 h
Description: The cellular proteins were isolated from mouse microglia treated with vehicle and mouse microglia activated with IFNγ/LPS and treated for 24 hours with vehicle or 50 μM MP-IV-010. The specific iNOS activity was determined with an Abcam INOS Activity Assay kit (n=4).
as §3, §4

Alpha2A = Alpha2A (Homo sapiens, UniProt P08913); experiment: PDSP primary binding Alpha2A; conditions: PDSP primary screening
Description: as §1, §2

5-HT3 = 5-HT3 (Homo sapiens, UniProt P46098); experiment: PDSP primary binding 5-HT3; conditions: PDSP primary screening
Description: as §1, §2

D2 = D2 (Homo sapiens, UniProt P14416); experiment: PDSP primary binding D2; conditions: PDSP primary screening
Description: as §1, §2

M2 = M2 (Homo sapiens, UniProt P08172); experiment: PDSP primary binding M2; conditions: PDSP primary screening
Description: as §1, §2

Alpha2C = Alpha2C (Homo sapiens, UniProt P18825); experiment: PDSP primary binding Alpha2C; conditions: PDSP primary screening
Description: as §1, §2

D5 = D5 (Homo sapiens, UniProt P21918); experiment: PDSP primary binding D5; conditions: PDSP primary screening
Description: as §1, §2

T2 sequence (Q5BJF2 whole entry, species assumed): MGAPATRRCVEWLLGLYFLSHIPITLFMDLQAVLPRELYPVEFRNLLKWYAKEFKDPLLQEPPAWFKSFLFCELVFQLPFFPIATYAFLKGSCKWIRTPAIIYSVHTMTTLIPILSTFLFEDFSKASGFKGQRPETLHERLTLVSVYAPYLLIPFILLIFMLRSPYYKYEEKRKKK
Sequence of Beta1 (P08588 whole entry): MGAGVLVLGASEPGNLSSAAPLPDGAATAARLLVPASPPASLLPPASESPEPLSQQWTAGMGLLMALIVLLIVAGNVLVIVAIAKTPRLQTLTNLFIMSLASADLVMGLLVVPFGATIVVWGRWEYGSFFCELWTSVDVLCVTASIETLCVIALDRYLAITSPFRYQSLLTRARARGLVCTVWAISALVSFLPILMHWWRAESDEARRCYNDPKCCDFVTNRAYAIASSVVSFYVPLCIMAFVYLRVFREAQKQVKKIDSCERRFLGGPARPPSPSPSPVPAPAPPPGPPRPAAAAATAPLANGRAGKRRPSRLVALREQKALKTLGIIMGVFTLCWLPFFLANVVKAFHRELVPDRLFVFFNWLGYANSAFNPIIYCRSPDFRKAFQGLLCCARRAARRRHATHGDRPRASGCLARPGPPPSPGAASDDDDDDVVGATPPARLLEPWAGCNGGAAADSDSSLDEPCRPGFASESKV
Sequence of D3 (P35462 whole entry): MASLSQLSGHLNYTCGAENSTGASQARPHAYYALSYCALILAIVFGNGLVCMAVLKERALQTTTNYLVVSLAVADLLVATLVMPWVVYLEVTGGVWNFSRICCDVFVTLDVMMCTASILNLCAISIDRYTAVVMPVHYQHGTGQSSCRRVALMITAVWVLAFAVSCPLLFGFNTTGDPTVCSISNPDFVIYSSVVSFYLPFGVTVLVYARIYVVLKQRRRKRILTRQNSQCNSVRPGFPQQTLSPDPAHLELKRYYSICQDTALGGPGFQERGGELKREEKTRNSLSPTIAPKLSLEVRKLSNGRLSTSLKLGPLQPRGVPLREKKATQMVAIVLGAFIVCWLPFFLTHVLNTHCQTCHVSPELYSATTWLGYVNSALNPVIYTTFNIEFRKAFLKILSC
Sequence of Alpha2C (P18825 whole entry): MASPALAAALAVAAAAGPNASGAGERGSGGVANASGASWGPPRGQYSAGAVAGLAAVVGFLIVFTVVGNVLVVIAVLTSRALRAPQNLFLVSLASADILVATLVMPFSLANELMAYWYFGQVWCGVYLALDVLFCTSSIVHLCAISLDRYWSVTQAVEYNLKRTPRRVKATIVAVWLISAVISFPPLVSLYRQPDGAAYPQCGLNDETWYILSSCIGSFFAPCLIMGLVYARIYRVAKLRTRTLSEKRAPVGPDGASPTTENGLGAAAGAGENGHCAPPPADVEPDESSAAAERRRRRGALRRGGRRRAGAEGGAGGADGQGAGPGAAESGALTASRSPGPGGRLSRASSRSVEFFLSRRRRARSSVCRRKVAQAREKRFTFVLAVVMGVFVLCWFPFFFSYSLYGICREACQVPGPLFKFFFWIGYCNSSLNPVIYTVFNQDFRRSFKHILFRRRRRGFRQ
Sequence of 5-HT1D (P28221 whole entry, species assumed): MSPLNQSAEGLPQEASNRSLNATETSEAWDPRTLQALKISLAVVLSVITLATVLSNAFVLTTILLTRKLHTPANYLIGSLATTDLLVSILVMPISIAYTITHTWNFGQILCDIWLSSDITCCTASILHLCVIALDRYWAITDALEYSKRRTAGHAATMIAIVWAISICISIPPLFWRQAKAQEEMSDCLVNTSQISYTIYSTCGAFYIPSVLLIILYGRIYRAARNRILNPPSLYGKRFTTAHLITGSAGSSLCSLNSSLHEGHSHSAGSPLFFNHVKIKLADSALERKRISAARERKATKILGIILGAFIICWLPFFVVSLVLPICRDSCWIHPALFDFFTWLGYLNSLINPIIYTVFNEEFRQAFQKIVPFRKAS
Sequence of M5 (P08912 whole entry): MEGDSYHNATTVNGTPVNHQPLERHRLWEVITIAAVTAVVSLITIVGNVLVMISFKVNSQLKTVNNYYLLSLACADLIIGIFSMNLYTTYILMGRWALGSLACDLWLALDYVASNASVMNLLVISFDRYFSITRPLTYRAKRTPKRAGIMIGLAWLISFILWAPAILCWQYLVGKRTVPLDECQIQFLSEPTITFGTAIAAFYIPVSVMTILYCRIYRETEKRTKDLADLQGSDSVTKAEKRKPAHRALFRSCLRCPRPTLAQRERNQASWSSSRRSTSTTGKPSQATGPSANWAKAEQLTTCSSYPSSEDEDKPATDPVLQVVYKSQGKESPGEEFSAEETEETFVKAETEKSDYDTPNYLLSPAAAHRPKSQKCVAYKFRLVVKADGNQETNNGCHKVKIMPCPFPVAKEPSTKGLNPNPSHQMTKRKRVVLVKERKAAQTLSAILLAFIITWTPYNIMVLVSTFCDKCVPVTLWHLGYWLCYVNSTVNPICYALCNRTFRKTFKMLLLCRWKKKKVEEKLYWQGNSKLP
Sequence of D5 (P21918 whole entry): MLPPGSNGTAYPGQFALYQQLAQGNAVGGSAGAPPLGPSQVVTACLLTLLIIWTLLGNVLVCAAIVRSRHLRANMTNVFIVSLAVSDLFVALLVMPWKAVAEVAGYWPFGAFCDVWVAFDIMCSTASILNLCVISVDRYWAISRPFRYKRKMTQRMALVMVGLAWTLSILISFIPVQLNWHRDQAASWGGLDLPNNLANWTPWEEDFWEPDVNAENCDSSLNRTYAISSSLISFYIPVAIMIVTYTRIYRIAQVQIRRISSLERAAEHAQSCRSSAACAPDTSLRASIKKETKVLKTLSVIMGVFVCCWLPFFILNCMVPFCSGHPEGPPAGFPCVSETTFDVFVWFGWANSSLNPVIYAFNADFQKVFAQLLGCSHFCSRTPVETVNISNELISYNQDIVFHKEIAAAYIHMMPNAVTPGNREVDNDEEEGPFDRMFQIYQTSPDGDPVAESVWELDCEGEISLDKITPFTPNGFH
Sequence of H1 (P35367 whole entry): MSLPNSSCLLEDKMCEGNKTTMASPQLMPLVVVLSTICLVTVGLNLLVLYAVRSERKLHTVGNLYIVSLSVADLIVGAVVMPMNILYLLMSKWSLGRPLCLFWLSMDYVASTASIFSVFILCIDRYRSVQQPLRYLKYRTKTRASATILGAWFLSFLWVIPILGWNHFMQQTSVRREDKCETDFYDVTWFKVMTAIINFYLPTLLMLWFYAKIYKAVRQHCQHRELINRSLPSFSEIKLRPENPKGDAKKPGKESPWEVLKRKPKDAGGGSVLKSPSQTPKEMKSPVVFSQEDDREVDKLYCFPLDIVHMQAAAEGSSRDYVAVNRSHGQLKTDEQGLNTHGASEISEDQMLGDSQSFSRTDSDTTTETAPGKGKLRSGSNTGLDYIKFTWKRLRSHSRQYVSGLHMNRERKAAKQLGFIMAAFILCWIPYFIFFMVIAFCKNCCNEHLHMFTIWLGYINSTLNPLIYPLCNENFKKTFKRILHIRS
T1 sequence (P29477 whole entry): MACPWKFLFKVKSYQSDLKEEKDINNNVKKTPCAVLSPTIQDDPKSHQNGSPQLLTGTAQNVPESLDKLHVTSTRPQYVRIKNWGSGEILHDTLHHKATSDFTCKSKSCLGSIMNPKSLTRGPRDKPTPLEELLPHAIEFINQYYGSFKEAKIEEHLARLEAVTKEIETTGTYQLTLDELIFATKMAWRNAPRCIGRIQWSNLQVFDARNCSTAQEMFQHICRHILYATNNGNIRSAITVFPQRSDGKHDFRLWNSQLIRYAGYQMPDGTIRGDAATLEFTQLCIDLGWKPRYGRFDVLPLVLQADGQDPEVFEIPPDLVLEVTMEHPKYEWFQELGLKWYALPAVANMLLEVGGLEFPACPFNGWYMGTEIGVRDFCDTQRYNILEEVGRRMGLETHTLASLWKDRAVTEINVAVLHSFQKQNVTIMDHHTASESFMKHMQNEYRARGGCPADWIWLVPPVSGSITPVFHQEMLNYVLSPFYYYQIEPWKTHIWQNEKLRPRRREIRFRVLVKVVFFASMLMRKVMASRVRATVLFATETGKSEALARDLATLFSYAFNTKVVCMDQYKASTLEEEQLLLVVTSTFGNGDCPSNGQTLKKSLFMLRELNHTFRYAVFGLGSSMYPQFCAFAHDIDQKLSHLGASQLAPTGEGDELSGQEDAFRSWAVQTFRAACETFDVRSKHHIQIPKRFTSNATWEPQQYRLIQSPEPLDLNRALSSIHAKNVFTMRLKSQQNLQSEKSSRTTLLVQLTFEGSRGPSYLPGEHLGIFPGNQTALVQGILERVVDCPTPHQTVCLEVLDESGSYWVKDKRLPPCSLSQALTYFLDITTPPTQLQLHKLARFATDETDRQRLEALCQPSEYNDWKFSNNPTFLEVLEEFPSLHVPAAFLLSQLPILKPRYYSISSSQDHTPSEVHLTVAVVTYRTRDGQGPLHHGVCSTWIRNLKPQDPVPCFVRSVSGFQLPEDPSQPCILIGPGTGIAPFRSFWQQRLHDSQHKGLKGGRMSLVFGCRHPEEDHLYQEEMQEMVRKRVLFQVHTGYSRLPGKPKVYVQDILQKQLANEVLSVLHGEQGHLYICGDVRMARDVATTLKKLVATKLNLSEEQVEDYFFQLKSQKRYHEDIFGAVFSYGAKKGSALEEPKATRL
Sequence of 5-HT1E (P28566 whole entry, species assumed): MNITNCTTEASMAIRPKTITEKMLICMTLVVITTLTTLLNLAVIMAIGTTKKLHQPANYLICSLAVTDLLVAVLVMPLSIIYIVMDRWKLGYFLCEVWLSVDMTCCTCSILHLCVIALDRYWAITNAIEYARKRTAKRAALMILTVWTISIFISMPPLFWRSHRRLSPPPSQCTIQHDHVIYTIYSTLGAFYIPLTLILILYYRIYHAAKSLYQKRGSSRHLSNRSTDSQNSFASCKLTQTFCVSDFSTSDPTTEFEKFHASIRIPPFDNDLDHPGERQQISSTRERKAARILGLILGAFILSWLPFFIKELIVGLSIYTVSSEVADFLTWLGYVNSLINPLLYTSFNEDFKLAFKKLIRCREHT

Structure (SMILES)	amount of iNOS protein (iNOS protein)	Percent Competition NET (NET) [%]	Percent Competition 5-HT1D (5-HT1D) [%]	Percent Competition H1 (H1) [%]	Percent Competition 5-HT1B (5-HT1B) [%]	Percent Competition D3 (D3) [%]	Percent Competition Beta1 (Beta1) [%]	iNOS activity of cellular extracts (direct inhibition) (iNOS [1])	Percent Competition M5 (M5) [%]	IC50 (σ2 receptor) [µM]	Percent Competition Sigma 2 (σ2 receptor; PDSP primary screening) [%]	Percent Competition 5-HT1E (5-HT1E) [%]	iNOS activity in activated microglia (iNOS [2])	Percent Competition Alpha2A (Alpha2A) [%]	Percent Competition 5-HT3 (5-HT3) [%]	Percent Competition D2 (D2) [%]	Percent Competition M2 (M2) [%]	Percent Competition Alpha2C (Alpha2C) [%]	Percent Competition D5 (D5) [%]
CCc1noc(-c2ncn3c2[C@@H](C)N=C(c2ccccc2F)c2cc(C4CC4)ccc2-3)n1 [GL-IV-03, (R)-5-(8-Cyclopropyl-6-(2-fluorophenyl)-4-methyl-4H-benzo[f]imidazo[1,5-a][1,4]diazepin-3-yl)-3-ethyl-1,2,4-oxadiazole]	significantly lower	–	–	–	–	–	–	–	–	–	–	–	–	–	–	–	–	–	–
C#Cc1ccc2c(c1)C(c1ccccc1F)=N[C@H](C)c1c(-c3nc(C(C)C)no3)ncn1-2 [MP-IV-010, (R)-5-(8-ethynyl-6-(2-fluorophenyl)-4-methyl-4H-benzo[f]imidazo[1,5-a][1,4]diazepin-3-yl)-3-isopropyl-1,2,4-oxadiazole]	–	−2	6	19	29	15	6	did not differ from the vehicle treated cell extract	26	5.2	64	−7	completely inhibited	14	13	25	10	31	29
